Values after ≈ are worked out from the molar mass of the structure shown.
Tests used:
[1] = molecular target: T1, Aβ(1-42) (Homo sapiens, UniProt P05067); assay: ThT kinetics of Aβ aggregation; assay type: biochemical; conditions: in words
T1 construct: Aβ(1-42)-peptide (Bachem, Bubendorf, Germany) was prepared in HFIP; purchased Bachem, Bubendorf
Method: The influence of the new β-sheet ligands, based on the aminopyrazole-trimer, on the Aβ self-assembly process was first studied kinetically. Reference curves were obtained independently for both Aβ (1-40) and Aβ (1-42). In a typical experiment, one third (⅓) equivalent of thioflavine T was added to a solution of monomeric Aβ in PBS buffer, prepared in HFIP. The increase in ThT fluorescence was monitored over time, as a measure of the total amount of accumulating aggregates. […] Both peptides reached a plateau after ˜3 days, which was set as standard time period for all consecutive aggregation assays.
Care was taken to eliminate fluorescence changes induced by any other events than the aggregation process; thus each ligand was separately shown to be non-fluorescent and not to alter Tht fluorescence in mixtures. Controls with pure Aβ were identical in peptide concentration as well as buffer and solvent composition. […] Aβ (1-42): Much more impressive is the inhibitory influence of the trimeric ligands on the aggregation kinetics of the full-length Aβ (1-42). […]
Then, a mixture of 9.5 μL ThT (62.7 μM stock solution), 6 μL PBS and 38.1 μL water (bidest.) was pipetted. […] Sixty μL of aggregation mixtures were pipetted in a 384-well plate and the fluorescence intensity (exc. at 446 nm, em. at 490 nm) was measured every hour at 37° C. […]

[2] = Solubility of the unprotected aminopyrazole trimers (stock solutions); conditions: water (class a) or DMSO (class b)
Method: The ligands were dissolved in 100% DMSO as 4.95 mM stock solutions and were stored at −20° C.

[3] = molecular target: T2, Oregon-Green-labeled Aβ (Homo sapiens, UniProt P05067); assay: Sedimentation analysis (analytical ultracentrifugation) of Aβ with ligand; assay type: binding
T2 construct: aggregation mixtures of Aβ(1-42)/Aβ42-OG (17.5 nM/3.5 μM) in 10 mM NaPi, pH 7.4
Method: (§1) In a standard FCS experiment a 5 nM Oregon-Green-labeled Aβ solution was prepared in PBS buffer with ˜3% DMSO. […] This is not surprising, because it comprises a flat arrangement of unpolar aromatics adorned with polar groups for extensive hydrogen bonding. Finally, TEM pictures were obtained from mature Aβ fibrils ([…]) as well as globular particles (3-30 nm) grown in the absence of aminopyrazole ligands.
FIG. 6A to 6F show the results of sedimentation velocity centrifugation: s-value-distributions of Aβ samples in the presence of Trimer-OH (FIG. 6A, FIG. 6B, FIG. 6C) vs. Trim-TEG-OEt (FIG. 6D, FIG. 6E, FIG. 6F). […] FIG. 6B, FIG. 6E: s-value distributions of the control experiments as determined by 2D-SA and Monte Carlo analysis. FIG. 6C, FIG. 6F: s-value distributions of experiments with 200 μM Trimer derivative after 5 d of incubation as determined by 2D-SA and Monte Carlo analysis.
(§2) Sedimentation velocity centrifugation was performed in an XLA (BeckmanCoulter, Palo Alto, USA) equipped with absorption optics and a four hole titanium rotor. […] Radial scans were recorded at a resolution of 0.002 cm. Detection wavelength was chosen at 493 nm to observe endlabeled FITC or Oregon Green™ and to avoid background absorbance from the test compound.
Sedimentation data were analyzed with UltraScan 9.4 (http://www.ultrascan.uthscsa.edu). […]

[4] = Sedimentation of the pure ligand (self-association); assay type: physicochemical; conditions: ligand itself
Method: as §1
Such an arrangement may also result in far-reaching conformational effects, indicated already be widening of the upper U-turn; these are now proposed to destroy the existing β-sheet (FIG. 12). The high positive charge of all five lysine residues requires the use of PBS with its high ionic strength for sedimentation experiments. […] Admittedly, their structures are somewhat reminiscent of the amphiphilic hybrid peptides (e.g., KLVFF-EEEEE) presented in the nineties for aggregation prevention by surface tension increase. […]
as §2

T2 sequence (P05067 672-713 limits assumed): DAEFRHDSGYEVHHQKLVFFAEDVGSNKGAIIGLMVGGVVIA
T2 sequence (P05067 672-713 limits assumed): as above
T1 sequence (P05067 672-713 limits assumed): as above

SMILES	effect on Aβ aggregation kinetics [1]	solubility [2]	molecular weight reduction of Aβ aggregates ([3]; corresponding to decrease to 25 S)	sedimentation coefficient of Aβ complex with ligand ([3]; dose-dependent decrease, pure Aβ above 50 S)	size of micelles formed by self-association of the ligand [4]
COC(=O)C(CCCCN)NC(=O)c1cc(NC(=O)c2cc(NC(=O)c3cc([N+](=O)[O-])n[nH]3)n[nH]2)n[nH]1.O=C(O)C(F)(F)F (centres unmarked) [Trimer-Lys-OMe]	accelerates Aβ aggregation	–	–	–	–
O=C(O)c1cc(NC(=O)c2cc(NC(=O)c3cc([N+](=O)[O-])n[nH]3)n[nH]2)n[nH]1 [Trimer-OH, 3-(3-(3-Nitro-1H-pyrazole-5-carboxamido)-1H-pyrazole-5-carboxamido)-1H-pyrazole-5-carboxylic acid]	–	200 to 4950 µM (≈ 75.1 to 1860 µg/mL)	50%	25 S	~10 S

— US8481494B2, “Compounds for the treatment of diseases related to protein misfolding” (priority 2009, dated 2013)
